In US8658604B2, “Template-fixed beta-hairpin peptidomimetics with protease inhibitory activity” (Polyphor Ltd, priority 2005, dated 2014):
Where two headings read alike, the source gives them in different places. Where a SMILES comes first, the peptide text is derived from it.

Legend:
[1] = target: T1, CathepsinG, from human neutrophils (Homo sapiens, UniProt P08311); assay: Enzymatic assay, cathepsin G; conditions: Cathepsin G IC50
T1 sequence (P08311 21-244): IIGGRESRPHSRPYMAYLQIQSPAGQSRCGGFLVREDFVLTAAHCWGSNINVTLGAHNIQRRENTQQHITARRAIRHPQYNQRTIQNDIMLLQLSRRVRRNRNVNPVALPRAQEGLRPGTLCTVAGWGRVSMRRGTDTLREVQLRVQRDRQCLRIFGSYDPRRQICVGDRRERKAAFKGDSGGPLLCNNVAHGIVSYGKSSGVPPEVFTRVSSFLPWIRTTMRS

[2] = target: T2, Trypsin, from human pancreas (Homo sapiens, UniProt P07477)
[3] = target: T3, Elastase from human neutrophils (Homo sapiens, UniProt P08246); assay: Enzymatic assay, elastase
T3 sequence (P08246 30-267): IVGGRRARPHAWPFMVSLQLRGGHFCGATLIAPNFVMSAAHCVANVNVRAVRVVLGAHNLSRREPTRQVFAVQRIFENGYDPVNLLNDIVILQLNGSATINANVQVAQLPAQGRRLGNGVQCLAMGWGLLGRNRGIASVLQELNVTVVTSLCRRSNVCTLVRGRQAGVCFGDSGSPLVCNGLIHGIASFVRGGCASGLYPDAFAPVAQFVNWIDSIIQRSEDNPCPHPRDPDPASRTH

[4] = target: T1, CathepsinG, from human neutrophils
[5] = target: T4, Thrombin, from Human Plasma (Homo sapiens, UniProt P00734)
[6] = test system: HELA cells (Acc57); assay: Cytotoxicity assay (MTT reduction), HELA cells; assay type: cell-based; conditions: Hela cells
Summary of the method: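 HeLa cells were grown for 24 h, then exposed to peptides at 12.5, 25 and 50 μM in triplicate for 48 h at 37 °C. MTT reduction was read at 595 nm and growth % calculated relative to time-zero wells. LC50 interpolated by linear trend at −50% growth, GI50 at 50%.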

[7] = target: T5, Coagulation Factor Xa, from uman plasma (Homo sapiens, UniProt P00742)
T5 sequence (P00742 235-488 limits assumed): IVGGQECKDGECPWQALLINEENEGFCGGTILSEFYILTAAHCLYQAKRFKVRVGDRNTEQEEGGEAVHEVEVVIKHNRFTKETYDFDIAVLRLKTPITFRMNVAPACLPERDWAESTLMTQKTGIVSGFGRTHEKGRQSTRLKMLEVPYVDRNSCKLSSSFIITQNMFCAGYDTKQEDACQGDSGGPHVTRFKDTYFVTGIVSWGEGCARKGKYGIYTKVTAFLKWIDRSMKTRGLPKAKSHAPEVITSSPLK
T5 sequence (P00742 41-179 limits assumed): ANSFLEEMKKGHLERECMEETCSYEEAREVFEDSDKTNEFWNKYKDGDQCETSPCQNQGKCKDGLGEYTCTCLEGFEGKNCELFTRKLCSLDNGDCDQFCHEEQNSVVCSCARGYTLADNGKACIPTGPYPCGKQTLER

[8] = target: T6, Chymotrypsin, from human pancreas (Homo sapiens, UniProt P17538); assay: Enzymatic assay, chymotrypsin
T6 sequence (P17538 19-263): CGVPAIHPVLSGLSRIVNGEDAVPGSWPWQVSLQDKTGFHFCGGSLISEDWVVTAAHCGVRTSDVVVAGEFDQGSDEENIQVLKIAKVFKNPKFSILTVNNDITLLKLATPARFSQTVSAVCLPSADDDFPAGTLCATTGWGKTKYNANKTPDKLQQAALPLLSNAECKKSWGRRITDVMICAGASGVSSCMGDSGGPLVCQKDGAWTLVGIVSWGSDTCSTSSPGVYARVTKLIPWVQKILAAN

[9] = target: T2, Trypsin, from human pancreas; assay: Enzymatic assay, trypsin; conditions: at 100 μM
[10] = assay type: in vitro ADME; conditions: 10 µM
Protocol: 405 μl of plasma/albumin solution were placed in a polypropylene (PP) tube and spiked with 45 μl of compound from a […] solution B, derived from 135 μl of PBS and 15 μl of 1 mM peptide in PBS, pH 7.4. 150 μl aliquots were transferred into individual wells of the 10 kDa filter plate (Millipore MAPPB 1010 Biomax membrane). For “0 minutes controls”: 270 μl of PBS were placed in a PP tube and 30 μl of stock solution B was added and vortexed. 150 μl of control solution were placed into one well of the filter plate and served as “filtered control”.
Further 150 μl of control solution were placed directly into a receiver well (reserved for filtrate) and served as “not-filtered control”. The entire plate including evaporation lid was incubated for 60 min at 37° C. Plasma samples (rat plasma: Harlan Sera lab UK, human plasma: Blutspendezentrum Zürich) were centrifuged at least for 2 h at 4300 rpm (3500 g) and 15° C. in order to yield 100 filtrate. For “serum albumin”-samples (freshly prepared human albumin: Sigma A-4327, rat albumin: Sigma A-6272, all at 40 mg/ml concentration in PBS) approximately 1 hour of centrifugation was sufficient. The filtrates in the receiver PP plate were analysed by LC/MS as follower follows: Column: Jupiter C18 (Phenomenex), mobile phases: (A) 0.1% formic acid in water and (B) acetonitrile, gradient: 5%-100% (B) in 2 minutes, electrospray ionization, MRM detection (triple quadrupole). The peak areas were determined and triplicate values were averaged. The binding was expressed in percent of the (filtered and not-filtered time point 0 min) control 1 and 2 by: 100−(100×T60/T0). The average from these values was then calculated.

[11] = test system: Tryptase, from human lung; assay: Enzymatic assay, tryptase; conditions: at 100 μM
[12] = target: T4, Thrombin, from Human Plasma; assay: Enzymatic assay, thrombin
[13] = target: T5, Coagulation Factor Xa, from uman plasma; assay: Enzymatic assay, coagulation factor Xa
[14] = Pharmacokinetic study after single oral (gavage) and intravenous administration in rats; conditions: rat
Protocol: 2.6. Pharmacokinetic Study (PK)
Pharmacokinetic Study after Single Oral (Gavage) and Intravenous Administration in Rats
Blood samples (approx. 0.24 ml) were taken following the schedule below at different time points into heparinized tubes by automated blood sampling using the DiLab AccuSampler. When a problem occurred during automated blood sampling, blood was sampled by retro-orbital bleeding under light isoflurane anesthesia. Samples were taken at the following time points: 0, 5 min (only i.v.), 15, 30 min and 1, 2, 4, 8, 16, 24 and 36 (only p.o.) hours and added to heparinized tubes. Plasma was removed from pelleted cells upon centrifugation and frozen at −80° C. prior to HPLC-MS analysis.
Preparation of the Plasma Calibration Samples
“Blank” rat plasma from untreated animals was used. […] The OASIS® HLB cartridges were conditioned with 1 ml of methanol and then with 1 ml of 1% NH3 in water. Samples were then diluted with 400 μl of 1% NH3 in water and loaded. The plate was washed with 1 ml of methanol/1% NH3 in water 5/95. Elution was performed using 1 ml of 0.1% TFA in methanol.
The plate containing eluates was introduced into the concentrator system and taken to dryness. The residues were dissolved in 100 μl of formic acid 0.1%/acetonitrile, 95/5 (v/v) and analysed in the HPLC/MS on a reverse phase analytical column (Jupiter C18, 50×2.0 mm, 5 μm, Phenomenex), using gradient elution (mobile phases A: 0.1% formic acid in water, B: Acetonitrile; from 5% B to 100% B in 2 min.).
Preparation of Plasma Samples
From each sample 100 μl of plasma were taken for the extraction. If the volume was less than 100 μl the appropriate amount of “blank” mouse plasma was added in order to keep the matrix identical to the calibration curve. Samples were then spiked with IS and processed as described for the calibration curve.
Pharmacokinetic Evaluation
The area under the curve AUC was calculated by the linear trapezoidal rule. AUC(t-∞) was estimated as Ct/b (b: elimination rate constant). […] the sum of AUC(0-t) and AUC(t-∞). Elimination half-life was calculated by the linear regression on at least three data points during the elimination phase. The time intervals selected for the half-life determinations were evaluated by the correlation coefficient (r^2), which should be at least above 0.85 and most optimally above 0.96. In case of i.v. administration the initial concentration at tzero was determined by extrapolation of the curve through the first two time points.

[15] = target: T7, Chymase, from human skin (Homo sapiens, UniProt P23946); assay: Enzymatic assay, chymase
T7 sequence (P23946 22-247): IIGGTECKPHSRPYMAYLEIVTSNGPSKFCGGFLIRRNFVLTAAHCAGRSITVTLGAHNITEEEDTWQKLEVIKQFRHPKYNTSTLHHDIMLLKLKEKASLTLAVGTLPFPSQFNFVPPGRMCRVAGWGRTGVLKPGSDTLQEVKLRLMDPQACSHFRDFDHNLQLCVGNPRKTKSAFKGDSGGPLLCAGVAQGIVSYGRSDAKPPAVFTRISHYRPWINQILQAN

[16] = target: Urokinase from human urine (Homo sapiens, UniProt P00749); assay: Enzymatic assay, urokinase
[17] = target: T7, Chymase, from human skin
[18] = target: T6, Chymotrypsin, from human pancreas

## CCCC[C@@H]1NC(=O)[C@@H]2CCCN2C(=O)[C@H]2CCCN2C(=O)[C@H](CCC(N)=O)NC(=O)[C@@H]2CSSC[C@H](NC1=O)C(=O)N[C@@H]([C@@H](C)O)C(=O)N[C@@H](C)C(=O)N[C@@H](CO)C(=O)N[C@@H]([C@@H](C)CC)C(=O)N1CCC[C@H]1C(=O)N1CCC[C@H]1C(=O)N[C@@H](CCC(N)=O)C(=O)N2 [Ex. 131] (HELM PEPTIDE1{[Nle].C.T.A.S.I.P.P.Q.C.Q.[dP].P}$PEPTIDE1,PEPTIDE1,2:R3-10:R3|PEPTIDE1,PEPTIDE1,1:R1-13:R2$$$V2.0)
[1]
  IC50: 45 nM
[2]
  Trypsin at 100 μM %: 0%
[3]; read-out: Elastase IC50
  IC50: 28 nM

## CCCCCCCC[C@@H]1NC(=O)[C@H](CO)NC(=O)[C@H](C)NC(=O)[C@H]([C@@H](C)O)NC(=O)[C@@H]2CSSC[C@H](NC(=O)[C@H](CCC(N)=O)NC(=O)[C@@H]3CCCN3C(=O)[C@@H]3CCCN3C1=O)C(=O)N[C@@H](Cc1ccc(O)cc1)C(=O)N1CCC[C@@H]1C(=O)N1CCC[C@H]1C(=O)N[C@@H](CCCC)C(=O)N2 [Ex. 81] (HELM PEPTIDE1{[Nle].C.T.A.S.[CCCCCCCC[C@H](N[*:1])C(=O)[*:2]].P.P.Q.C.Y.[dP].P}$PEPTIDE1,PEPTIDE1,2:R3-10:R3|PEPTIDE1,PEPTIDE1,1:R1-13:R2$$$V2.0)
[4]
  Cathepsin G at 100 μM %: 61.3 at 100%
[5]
  Thrombin at 100 μM %: 13.1%
[6]
  Cytotoxicity LC50/GI50 Hela cells: 58000 nM
[7]
  FXa at 100 μM %: 8.7%
[8]
  IC50: 100000 nM
[3]; Elastase IC50
  IC50: 28 nM

## CC[C@H](C)[C@@H]1NC(=O)[C@@H]2CCCN2C(=O)[C@@H]2CCCN2C(=O)[C@H](CC(=O)O)NC(=O)[C@H](CO)NC(=O)[C@H](CCCCN)NC(=O)[C@H]([C@@H](C)O)NC(=O)[C@@H]2CSSC[C@H](NC1=O)C(=O)N[C@@H](Cc1ccccc1)C(=O)N1CCC[C@@H]1C(=O)N1CCC[C@H]1C(=O)N[C@@H](CCCNC(=N)N)C(=O)N2 [Ex. 75] (HELM PEPTIDE1{R.C.T.K.S.D.P.P.I.C.F.[dP].P}$PEPTIDE1,PEPTIDE1,2:R3-10:R3|PEPTIDE1,PEPTIDE1,1:R1-13:R2$$$V2.0)
[9]
  Trypsin at 100 μM %: 92.6%
[1]
  IC50: 86 nM
[10]
  Stability human Plasma t1/2: 5 h
  Stability rat Plasma t1/2: 5 h
[11]
  Tryptase at 100 μM %: 0%
[12]
  Thrombin at 100 μM %: 1.1%
[13]
  FXa at 100 μM %: 5.7%
[14]; male, Wistar, in vivo, iv, 5 mg/kg
  half-life: 0.5 h
[14]; male, Wistar, iv, 5 mg/kg
  level at 0.25 h: 5770 ng/mL
  level at 0.5 h: 3460 ng/mL
  level at 4 h: 18 ng/mL
[14]; male, Wistar, po
  Cmax: 46 ng/mL
[14]; male, Wistar, po, 50 mg/kg
  Vd (apparent distribution volume): 1.008 L/kg
  level at 4 h: 24 ng/mL
[14]
  apparent distribution volume after oral administration, fold higher than after i.v.: about 1.8 fold
[14]; 5 mg/kg
  % absorbed (F) (percentage of normalized AUC0-∞ po. against normalized AUC0-∞ i.v.): 100%
[14]; 50 mg/kg
  % absorbed (F) (percentage of normalized AUC0-∞ po. against normalized AUC0-∞ i.v.): 1.3%
[14]; iv, 5 mg/kg
  Cmax norm: 0.08 ng/mL
  initial distribution volume: 355 mL/kg
[14]; po, 50 mg/kg
  Cmax norm: 0.25 ng/mL
[15]
  Chymase at 100 μM %: 0%
[16]
  Urokinase at 100 μM %: 5.7%
[8]; at 100 μM
  Chymotrypsin at 100 μM %: 7.8 at 100 μM %
[3]; at 100 μM (stated in cell instead of IC50)
  Elastase at 100 μM %: 69.1 at %

## CCCC[C@@H]1NC(=O)[C@@H]2CCCN2C(=O)[C@@H](C)NC(=O)[C@H](Cc2ccc(O)cc2)NC(=O)[C@@H]2CSSC[C@H](NC1=O)C(=O)N[C@@H]([C@@H](C)O)C(=O)N[C@@H](C)C(=O)N[C@@H](CO)C(=O)N[C@@H]([C@@H](C)CC)C(=O)N1CCC[C@H]1C(=O)N1CCC[C@H]1C(=O)N[C@@H](CCC(N)=O)C(=O)N2 [Ex. 130] (HELM PEPTIDE1{[Nle].C.T.A.S.I.P.P.Q.C.Y.[dA].P}$PEPTIDE1,PEPTIDE1,2:R3-10:R3|PEPTIDE1,PEPTIDE1,1:R1-13:R2$$$V2.0)
[17]
  Chymase at 100 μM %: <4000%
[3]; Elastase IC50
  IC50: 29 nM

## CC[C@H](C)[C@@H]1NC(=O)[C@@H]2CCCN2C(=O)[C@@H]2CCCN2C(=O)[C@H](CCC(=O)O)NC(=O)[C@H](CO)NC(=O)[C@H](CCCCN)NC(=O)[C@H]([C@@H](C)O)NC(=O)[C@@H]2CSSC[C@H](NC1=O)C(=O)N[C@@H](CO)C(=O)N1CCC[C@@H]1C(=O)N1CCC[C@H]1C(=O)N[C@@H](Cc1ccccc1)C(=O)N2 [Ex. 21] (HELM PEPTIDE1{F.C.T.K.S.E.P.P.I.C.S.[dP].P}$PEPTIDE1,PEPTIDE1,2:R3-10:R3|PEPTIDE1,PEPTIDE1,1:R1-13:R2$$$V2.0)
[18]
  Chymotrypsin at 100 μM %: 2.6%
[1]
  IC50: 97 nM
[17]
  Chymase at 100 μM %: 5%
[2]
  Trypsin at 100 μM %: 95.6%
[3]; Elastase IC50
  IC50: 16.4 nM
